According to US20260035364A1, “BICYCLIC TETRAHYDROTHIAZEPINE DERIVATIVES” (Hoffmann-La Roche Inc., priority 2022, published 2026):
Read-outs that look alike come from different tables or passages of the source.

System: primary human T-cells
Experiment: IL2 secretion measurements in CD3-stimulated T-cells
Assay type: cell-based
Conditions: CD3 condition; for Emax: read-out: Emax IL2 (% activation); for EC50: IL2 secretion after 24 hours, read-out: Tcell IL2 CD3 EC50
Procedure: As readouts for T-cell activation, IL2 secretion after 24 hours and proliferation after 5 days was measured. Increases in IL2 secretion and proliferation upon compound treatment were assessed as the % of the maximum of reference compound A1. WO 2016/139181 discloses reference compound A1 as example 70. As a counter screen and to make sure that no unwanted TCR-independent activation was triggered, PBS conditions were run for all compounds.
Expanded primary human T-cells were thawed and cultured in RPMI 1640 (Gibco, #61870-010)+5% human serum (HS, Sigma, #H3667)+1 mM Sodium Pyruvate (Gibco, #11360-039)+50 μM 2-mercaptoethanol (Gibco, #31350-010) and 1× Pen-Strep (Life Technologies, #15140122) medium at density of 2 Mio/ml for 3 hours in 5% CO2, 37° C. and 95% humidity. For coating of plates, […] or PBS++ with CD3 antibody (concentration depending on donor and determined by CD3 titrations) was added 100 μl/well to Poly-D Lysine coated 96-well plates. Plates were sealed and incubated at room temperature for 3 hours on a table-top rocking platform. After incubation, plates were washed once with PBS−− and filled with 40 μl/well culture medium only. Compounds were then added (see next section) to medium only plates. After 3 hours of culturing the T-cells, cells were filtered through a cell strainer (Miltenyi Biotech, #130-041-407), counted again and concentration was adjusted to 1.25 Mio/ml.
Cells were then seeded 80 μl/well to the 40 μl/well including dispensed compounds according to plate layout. By adding cells, compounds were further diluted 1:3, and resulting in 100k cells/120 µl/well. After 24 hours 40 μl of supernatant was collected carefully from the top while not disturbing the cells and transferred into a round bottom 96 well plate. Collected and frozen supernatant was used for detection of IL2 using the IL-2 Human ProQuantum Immunoassay Kit (Invitrogen) or using the Human IL-2 ELISA Kit (Thermo Fisher).
Compound Treatment Compounds were added in a 5 or 6 pt dose response with the Tecan D300e Digital Dispenser, all conditions 3 times more concentrated than the end-concentration, since cells are added afterwards (80p1 cells to 40p1 prepared medium with treatment). The DR was starting at 20 μM or 10 μM final top concentration and a dilution factor of 3.333. The positive control was the reference compound A1 that was added in a dose response as well, additionally to 3 wells of only 20 μM representing the positive stimulator control. All wells were normalized with DMSO to a final concentration of 0.6% (0.2% end-concentration).
The immunoassay is done following the manufacturer's manual (Invitrogen, #A35603).
Additional information: For the immunoassay, MicroAmp™ EnduraPlate™ Optical 384-Well plates are used. Frozen supernatant is thawed and centrifuged for 5 minutes at 1000×g, both steps at 4° C. After centrifugation, required sample amount is taken from the top, and in a separate LightCycler V-bottom plate (working plate) diluted with assay dilution buffer, dilution factor depending on the PBS or CD3 condition but at least 1:3. IL-2 standard and blanks are prepared in the same V-bottom plate, standard with a range of 0.0128-5000 pg/ml (extended version). After preparation, 5 μl of sample dilutions or standard/blanks are transferred to the optical 384-well plate (assay plate) and the 10 μl reaction protocol is being followed. For measurement, the QuantStudio 12K Flex system is used. Raw data is extracted and IL-2 concentrations are calculated with the Thermo Fisher online app (apps.thermofisher.com/apps/proquantum).
ELISA is done following the manufacturer's manual (Thermo Fisher Scientific, #88-7025-88). Additional information: For the ELISA Nunc MaxiSorp 96 well plates are used. Frozen supernatant is thawed and centrifuged for 5 minutes at 1000×g, both steps at 4° C. […]

[1] = Homo sapiens, T-cell, 24 h, IL2 after 24 hours, 20 μM reference compound A1 = 100%

Row | Compound | Emax [1] [%] | EC50 (Homo sapiens, T-cell, 24 h) [nM] | Emax IL2 (% activation) (IL2 after 24 hours, 20 μM reference compound A1 = 100%) [%] | EC50 [nM]
1 | CS(=O)(=O)C1(c2nnc(-c3ccc4c(c3)N(Cc3ccc(Oc5ccccc5)cc3)C(=O)[C@@H](N)CS4(=O)=O)o2)CC1 [Example 66, (3R)-3-amino-7-[5-(1-methylsulfonylcyclopropyl)-1,3,4-oxadiazol-2-yl]-1,1-dioxo-5-[(4-phenoxyphenyl)methyl]-2,3-dihydro-1λ6,5-benzothiazepin-4-one] | 52 | 9170 |  | 
2 | CC(C)(c1nc(-c2cc3c(cc2F)[S+]([O-])C[C@H](N)C(=O)N3Cc2ccc(Oc3ccccc3)cc2)no1)S(C)(=O)=O (stereo partly drawn) [Example 52, (3R)-3-amino-8-fluoro-7-[5-(1-methyl-1-methylsulfonyl-ethyl)-1,2,4-oxadiazol-3-yl]-1-oxo-5-[(4-phenoxyphenyl)methyl]-2,3-dihydro-1λ4,5-benzothiazepin-4-one] |  |  | 253 | 1170
3 | CC(C)(c1nnc(-c2ccc3c(c2)N(Cc2ccc(Oc4cc(F)cc(C(F)(F)F)c4)cc2)C(=O)[C@@H](N)CS3(=O)=O)o1)S(C)(=O)=O [Example 39] | 106 | 813 |  | 
4 | CC(C)(c1nnc(-c2ccc3c(c2)N(Cc2ccc(Oc4cccc(OC(F)(F)F)c4)cc2)C(=O)[C@@H](N)CS3(=O)=O)o1)S(C)(=O)=O [Example 40, (3R)-3-amino-7-[5-(1-methyl-1-methylsulfonyl-ethyl)-1,3,4-oxadiazol-2-yl]-1,1-dioxo-5-[[4-[3-(trifluoromethoxy)phenoxy]phenyl]methyl]-2,3-dihydro-126,5-benzothiazepin-4-one] | 196 | 801 |  | 
5 | CS(=O)(=O)Cn1nnc(-c2cc3c(cc2F)S(=O)(=O)C[C@H](N)C(=O)N3Cc2ccc(Oc3ccccc3)cc2)n1 [Example 54, (3R)-3-amino-8-fluoro-7-[2-(methylsulfonylmethyl)tetrazol-5-yl]-1,1-dioxo-5-[(4-phenoxyphenyl)methyl]-2,3-dihydro-1λ6,5-benzothiazepin-4-one] | 132 | 1040 |  | 
6 | CC(C)(c1nnc(-c2ccc3c(c2)N(Cc2ccc(-c4ccc(OC(F)(F)F)cn4)cc2)C(=O)[C@@H](N)CS3(=O)=O)o1)S(C)(=O)=O [Example 69, (3R)-3-amino-1,1-diketo-7-[5-(1-mesyl-1-methyl-ethyl)-1,3,4-oxadiazol-2-yl]-5-[4-[5-(trifluoromethoxy)-2-pyridyl]benzyl]-2,3-dihydro-1λ6,5-benzothiazepin-4-one] | 97 | 497 |  | 
7 | CC(C)(c1nnc(-c2cc3c(cc2F)S(=O)(=O)C[C@H](N)C(=O)N3Cc2ccc(Oc3ccccc3)cc2)o1)S(C)(=O)=O [Example 27, (3R)-3-amino-8-fluoro-7-[5-(1-methyl-1-methylsulfonyl-ethyl)-1,3,4-oxadiazol-2-yl]-1,1-dioxo-5-[(4-phenoxyphenyl)methyl]-2,3-dihydro-1λ6,5-benzothiazepin-4-one] | 215 | 2600 |  | 
8 | COc1ccc(-c2ccc(CN3C(=O)[C@@H](N)CS(=O)(=O)c4cc(F)c(-c5noc(C(C)(C)S(C)(=O)=O)n5)cc43)cc2)cc1 [Example 50, (3R)-3-amino-8-fluoro-5-[[4-(4-methoxyphenyl)phenyl]methyl]-7-[5-(1-methyl-1-methylsulfonyl-ethyl)-1,2,4-oxadiazol-3-yl]-1,1-dioxo-2,3-dihydro-1λ6,5-benzothiazepin-4-one] | 99 | 216 |  | 
9 | CC(C)(c1nnc(-c2ccc3c(c2)N(Cc2ccc(OCc4ccccc4)cc2)C(=O)[C@@H](N)CS3(=O)=O)o1)S(C)(=O)=O [Example 11, (3R)-3-amino-5-[(4-benzyloxyphenyl)methyl]-7-[5-(1-methyl-1-methylsulfonyl-ethyl)-1,3,4-oxadiazol-2-yl]-1,1-dioxo-2,3-dihydro-1λ6,5-benzothiazepin-4-one] | 140 | 932 |  | 
10 | CC(C)(c1nnc(-c2ccc3c(c2)N(Cc2ccc(-c4ccc(C(F)(F)F)cc4)nc2)C(=O)[C@@H](N)CS3(=O)=O)o1)S(C)(=O)=O [Example 57, (3R)-3-amino-7-[5-(1-methyl-1-methylsulfonyl-ethyl)-1,3,4-oxadiazol-2-yl]-1,1-dioxo-5-[[6-[4-(trifluoromethyl)phenyl]-3-pyridyl]methyl]-2,3-dihydro-1λ6,5-benzothiazepin-4-one] | 53 | 9140 |  | 
11 | COc1cccc(-c2ccc(CN3C(=O)[C@@H](N)CS(=O)(=O)c4ccc(-c5nnc(C(C)(C)S(C)(=O)=O)o5)cc43)cc2)c1 [Example 22, (3R)-3-amino-5-[[4-(3-methoxyphenyl)phenyl]methyl]-7-[5-(1-methyl-1-methylsulfonyl-ethyl)-1,3,4-oxadiazol-2-yl]-1,1-dioxo-2,3-dihydro-1λ6,5-benzothiazepin-4-one] | 63 | 2210 |  | 
12 | CC(C)(c1nnc(-c2ccc3c(c2)N(Cc2ccc(-c4ccc(F)cn4)cc2)C(=O)[C@@H](N)CS3(=O)=O)o1)S(C)(=O)=O [Example 9, (3R)-3-amino-5-[[4-(5-fluoro-2-pyridyl)phenyl]methyl]-7-[5-(1-methyl-1-methylsulfonyl-ethyl)-1,3,4-oxadiazol-2-yl]-1,1-dioxo-2,3-dihydro-1λ6,5-benzothiazepin-4-one] | 65 | 5270 |  | 
13 | CC(C)(c1nnc(-c2cc3c(cc2F)S(=O)(=O)C[C@H](N)C(=O)N3Cc2ccc(OCC(F)(F)F)cc2)o1)S(C)(=O)=O [Example 24, (3R)-3-amino-8-fluoro-7-[5-(1-methyl-1-methylsulfonyl-ethyl)-1,3,4-oxadiazol-2-yl]-1,1-dioxo-5-[[4-(2,2,2-trifluoroethoxy)phenyl]methyl]-2,3-dihydro-1λ6,5-benzothiazepin-4-one] | 24 | 1060 |  | 
14 | CC(C)(c1nc(-c2cc3c(cc2F)S(=O)(=O)C[C@H](N)C(=O)N3Cc2ccc(OC(F)(F)F)cc2)no1)S(C)(=O)=O [Example 44, (3R)-3-amino-8-fluoro-7-[5-(1-methyl-1-methylsulfonyl-ethyl)-1,2,4-oxadiazol-3-yl]-1,1-dioxo-5-[[4-(trifluoromethoxy)phenyl]methyl]-2,3-dihydro-1λ6,5-benzothiazepin-4-one] | 192 | 325 |  | 
15 | COc1ccc(-c2ccc(CN3C(=O)[C@@H](N)CS(=O)(=O)c4ccc(-c5nnc(C(C)(C)S(C)(=O)=O)o5)cc43)cc2)cc1 [Example 21, (3R)-3-amino-5-[[4-(4-methoxyphenyl)phenyl]methyl]-7-[5-(1-methyl-1-methylsulfonyl-ethyl)-1,3,4-oxadiazol-2-yl]-1,1-dioxo-2,3-dihydro-1λ6,5-benzothiazepin-4-one] | 89 | 1240 |  | 
16 | CC(C)(c1nc(-c2cc3c(cc2F)S(=O)(=O)C[C@H](N)C(=O)N3Cc2ccc(C3CCOCC3)cc2)no1)S(C)(=O)=O [Example 53, (3R)-3-amino-8-fluoro-7-[5-(1-methyl-1-methylsulfonyl-ethyl)-1,2,4-oxadiazol-3-yl]-1,1-dioxo-5-[(4-tetrahydropyran-4-ylphenyl)methyl]-2,3-dihydro-1λ6,5-benzothiazepin-4-one] | 96 | 4360 |  | 
17 | CC(C)(c1nnc(-c2ccc3c(c2)N(Cc2ccc(-c4ccc(C(F)(F)F)cc4)cc2)C(=O)[C@@H](N)CS3(=O)=O)o1)S(C)(=O)=O [Example 56, (3R)-3-amino-7-[5-(1-methyl-1-methylsulfonyl-ethyl)-1,3,4-oxadiazol-2-yl]-1,1-dioxo-5-[[4-[4-(trifluoromethyl)phenyl]phenyl]methyl]-2,3-dihydro-1λ6,5-benzothiazepin-4-one] | 120 | 741 |  | 
